Measurements from ChEMBL document CHEMBL1137781, “Synthesis and preclinical evaluation of novel PET probes for P-glycoprotein function and expression” (J Med Chem, 2009).

Experiments:
Caco-2 = test: Ratio of permeability from basolateral to apical side over apical to basolateral side in human Caco-2 cells; format: ADME, cell-based
NCI/ADR-RES [1] = test: Inhibition of Pgp in human MCF7/ADR cells assessed as increase in doxorubicin accumulation at 20 uM relative to untreated control; format: cell-based
NCI/ADR-RES [2] = test: Inhibition of Pgp in human MCF7/ADR cells assessed as potentiation of doxorubicin-induced cytotoxicity at 20 uM relative to untreated control; format: cell-based

Ratio (Caco-2): 1.6
Structure (SMILES): COc1cc2c(cc1OC)CN(CC/C=C1\CCCc3c(OC)cccc31)CC2
fold change (FC) (NCI/ADR-RES [1]): 5.7
fold change (FC) (NCI/ADR-RES [2]): 95
